Assay results as given in patent US8629167B2, “Selective androgen receptor modulators” (Radius Health, Inc., priority 2008, dated 2014).
Like-named read-outs stand apart in the source and are kept apart here.

What was measured:
androgen receptor = androgen receptor (Rattus norvegicus (Rat), UniProt P15207); assay: androgen receptor binding assay (fluorescence polarization, AR-Fluormone complex)
Protocol: The assay was performed as specified by the manufacturer (Invitrogen, Madison, Wis.). Briefly, 1 μl of 10 mM compound was added to 500 μl of AR screening buffer in a 1.5 ml eppendorf tube to make a 2×10^−5 M stock. 10-fold serial dilutions of the test compounds were prepared ranging in concentration from 10^−5M to 10^−12 M. Each dilution was added in triplicate to a black 384-microtiter plate. The test compounds will be diluted 2-fold in the final reaction. 2×AR-Fluormone™ complex was prepared with 2 nM Flourmone AL Green™ and 30 nM AR. 25 μl of 2× complex was aliquoted to each reaction well, such that the final reaction volume was 50 μl per well. Plate was sealed with a foil cover and incubated in the dark at room temperature for 4 h. Polarization values for each well were measured. The polarization values were plotted against the concentration of the test compound. […] As a control, a competition curve for R1881 (methyltrienolone) was performed for each assay. Curve Fitting was performed using GraphPad Prism® software from GraphPad™ Software Inc. Binding data are reported as a single determination if the experiment was run once only and as the average of experiments if the binding experiment was performed two or more times with that compound.
Were multiple data points have been taken, the value reported is the average of the multiple determinations.

[1] = system: young, orchidectomized rats; assay: Rat Herschberger assay (in vivo androgen and anabolic activity); conditions: organ weight, 10 mg/kg (po), treated for 4 days
Text: The following is a typical procedure of the in vivo evaluation of the selective androgens of this invention. In particular, this assay looks primarily at the ability of the selective androgens of this invention to increase muscle size in an immature, castrated rat. In addition, androgenic effects are looked at primarily by weighing the prostate and seminal vesicles. Selective compounds will show a greater increase in the levator ani relative to the prostate and seminal vesicles when compared to testosterone treated, castrated animals or to intact animals that have not been treated. Immature Sprague Dawley male rats were obtained Charles River Laboratories (Stoneridge, N.Y.). All animals were maintained in a temperature and humidity controlled room with a 12 hr light: 12 hr dark cycle, with ad lib access to food (TD 291615, Teklad, Madison, Wis.) and water. Rats were anesthetized and orchidectomized (GDX) or sham surgery (SHAM) was performed. After a 7-day recovery period, the animals were randomized according to weight and assigned to treatment groups (n=5), SHAM, OVX+vehicle, OVX+Cpd treated. Testosterone propionate (TP 1 mg/kg in 5% DMSO/95% corn oil) was administered by once daily subcutaneous injections, while the compounds of the invention are dosed in vehicle (typically 20% cyclodextrin or 0.5% carboxymethylcellulose) was administered by once daily oral gavage. The rats were then dosed once daily for 4 days. All animals were euthanized via carbon dioxide inhalation 24 hs after the last dose. The prostate, seminal vesicle and levator ani and bulba cavernous (LABC) tissues were removed, weighed and recorded. Body weights were recorded for each animal at baseline and at sacrifice.
Prostate, seminal vesicle and levator ani bulbus cavernosus (LABC) are all represented as % relative to sham. After sacrifice, organ weights of young, orchidectomized rats treated with compound for 4 days are compared to sham operated animals.

[2] = single determination or average of multiple determinations, read-out: Binding IC50 (nM), Compound AR-Binding Affinity

androgen receptor, sequence (P15207 whole entry, looked up): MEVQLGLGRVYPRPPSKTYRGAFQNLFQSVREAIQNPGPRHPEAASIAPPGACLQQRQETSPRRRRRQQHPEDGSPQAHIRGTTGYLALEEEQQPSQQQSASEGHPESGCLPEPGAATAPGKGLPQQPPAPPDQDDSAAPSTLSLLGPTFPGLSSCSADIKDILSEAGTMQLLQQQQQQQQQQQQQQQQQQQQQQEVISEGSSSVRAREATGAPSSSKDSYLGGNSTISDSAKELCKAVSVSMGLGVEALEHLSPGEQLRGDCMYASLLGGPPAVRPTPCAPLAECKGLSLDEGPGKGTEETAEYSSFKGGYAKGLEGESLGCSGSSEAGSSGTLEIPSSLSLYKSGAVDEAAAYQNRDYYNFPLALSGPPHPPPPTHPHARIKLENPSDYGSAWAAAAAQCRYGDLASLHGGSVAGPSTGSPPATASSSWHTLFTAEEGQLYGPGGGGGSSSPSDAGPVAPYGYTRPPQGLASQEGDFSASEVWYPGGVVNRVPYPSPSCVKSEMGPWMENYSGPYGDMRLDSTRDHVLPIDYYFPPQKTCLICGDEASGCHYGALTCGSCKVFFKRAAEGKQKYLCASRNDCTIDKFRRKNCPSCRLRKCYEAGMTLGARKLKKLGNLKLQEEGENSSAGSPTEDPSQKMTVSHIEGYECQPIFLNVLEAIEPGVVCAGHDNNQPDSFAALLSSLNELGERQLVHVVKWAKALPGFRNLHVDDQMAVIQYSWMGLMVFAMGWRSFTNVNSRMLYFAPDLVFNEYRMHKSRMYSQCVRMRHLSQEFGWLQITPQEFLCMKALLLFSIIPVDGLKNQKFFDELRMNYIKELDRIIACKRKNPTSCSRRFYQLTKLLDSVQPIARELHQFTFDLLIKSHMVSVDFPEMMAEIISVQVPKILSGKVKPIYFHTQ

Compound | IC50 (androgen receptor) [nM] | further results
CCC(=O)O[C@@H](C)[C@@H](Nc1ccc(C#N)c(Cl)c1C)c1nnc(-c2ccc(C#N)cc2)o1 [Example 86, (1R,2S)-1-(3-Chloro-4-cyano-2-methylphenylamino)-1-(5-(4-cyanophenyl)-1,3,4-oxadiazol-2-yl)propan-2-yl propionate] | 120 | 
Cc1c(N[C@H](c2ccc(-c3nnco3)cc2)[C@@H](C)OS(N)(=O)=O)ccc(C#N)c1Cl [Example 94, (1R,2R)-1-(3-Chloro-4-cyano-2-methylphenylamino)-1-(4-(1,3,4-oxadiazol-2-yl)phenyl sulfamate)propan-2-yl sulfamate] |  | IC50 (androgen receptor; [2]): > 1000 nM
Cc1c(N[C@@H](c2nnc(-c3ccccc3)o2)[C@H](C)OS(N)(=O)=O)ccc(C#N)c1Cl [Example 90, (1R,2S)-1-(3-Chloro-4-cyano-2-methylphenylamino)-1-(5-phenyl-1,3,4-oxadiazol-2-yl)propan-2-yl sulfamate] | 20 | 
CC(=O)O[C@@H](C)[C@@H](Nc1ccc(C#N)c(Cl)c1C)c1nnc(-c2ccc(C#N)cc2)o1 [Example 88, (1R,2S)-1-(3-Chloro-4-cyano-2-methylphenylamino)-1-(5-(4-cyanophenyl)-1,3,4-oxadiazol-2-yl)propan-2-yl acetate] | 110 | 
Cc1c(N[C@@H](c2nnc(-c3ccc(NC(=O)c4ccccc4)cc3)o2)[C@H](C)O)ccc(C#N)c1Cl [Example 77, N-(4-(5-((1R,2S)-1-(3-Chloro-4-cyano-2-methylphenylamino)-2-hydroxypropyl)-1,3,4-oxadiazol-2-yl)phenyl)benzamide] |  | IC50 (androgen receptor; [2]): 1000 nM
Cc1c(N[C@@H](c2nnc(-c3ccccc3)o2)[C@H](C)O)ccc(C#N)c1Cl [Example 1, 2-chloro-4-((1R,2S)-2-hydroxy-1-(5-phenyl-1,3,4-oxadiazol-2-yl)propylamino)-3-methylbenzonitrile] |  | LABC (levator ani bulbus cavernosus), % relative to sham [1]: 85%; Prostate, % relative to sham [1]: 46%; Seminal vesicle, % relative to sham [1]: 69%
C[C@H](O)[C@@H](Nc1ccc(C#N)c2scc(Cl)c12)c1nnc(-c2ccc(C#N)cc2)o1 [Example 95, 3-Chloro-4-((1R,2S)-1-(5-(4-cyanophenyl)-1,3,4-oxadiazol-2-yl)-2-hydroxypropylamino)benzo[b]thiophene-7-carbonitrile] | 1 | 
Cc1c(N[C@@H](c2nnc(-c3ccccc3)o2)[C@@H](C)O)ccc(C#N)c1Cl [Example 3, 2-chloro-4-((1R,2R)-2-hydroxy-1-(5-phenyl-1,3,4-oxadiazol-2-yl)propylamino)-3-methylbenzonitrile] |  | LABC (levator ani bulbus cavernosus), % relative to sham [1]: 99%; Prostate, % relative to sham [1]: 43%; Seminal vesicle, % relative to sham [1]: 37%
Cc1c(N[C@@H](c2nnc(-c3ccc(OS(N)(=O)=O)cc3)o2)[C@H](C)O)ccc(C#N)c1Cl [Example 93, 4-(5-((1R,2S)-1-(3-Chloro-4-cyano-2-methylphenylamino)-2-hydroxypropyl)-1,3,4-oxadiazol-2-yl)phenyl sulfamate] | 25 | 
CCC(=O)O[C@@H](C)[C@@H](Nc1ccc(C#N)c(Cl)c1C)c1nnc(-c2ccccc2)o1 [Example 84, (1R,2S)-1-(3-Chloro-4-cyano-2-methylphenylamino)-1-(5-phenyl-1,3,4-oxadiazol-2-yl)propan-2-yl propionate] | 25 | 
CCCC(=O)O[C@@H](C)[C@@H](Nc1ccc(C#N)c(Cl)c1C)c1nnc(-c2ccc(C#N)cc2)o1 [Example 85, (1R,2S)-1-(3-Chloro-4-cyano-2-methylphenylamino)-1-(5-(4-cyanophenyl)-1,3,4-oxadiazol-2-yl)propan-2-yl butyrate] | 10 | 
CC(=O)O[C@@H](C)[C@@H](Nc1ccc(C#N)c(Cl)c1C)c1nnc(-c2ccccc2)o1 [Example 76, (1R,2S)-1-(3-chloro-4-cyano-2-methylphenylamino)-1-(5-phenyl-1,3,4-oxadiazol-2-yl)propan-2-yl acetate] | 15 | 
[2H]c1ccc(-c2nnc([C@H](Nc3ccc(C#N)c(Cl)c3C)[C@H](C)O)o2)cc1 [Example 97, 2-Chloro-4-((1R,2S)-1-(5-(4-deuterophenyl)-1,3,4-oxadiazol-2-yl)-2-hydroxypropylamino)-3-methylbenzonitrile] | 18 | 
C[C@H](O)[C@@H](Nc1ccc(C#N)c(Cl)c1)c1nnc(-c2ccc(S(C)(=O)=O)cc2)o1 [Example 48, 2-Chloro-4-((1R,2S)-2-hydroxy-1-(5-(4-(methylsulfonyl)phenyl)-1,3,4-oxadiazol-2-yl)propylamino)benzonitrile] |  | IC50 (androgen receptor; [2]): > 1000 nM
Cc1c(N[C@@H](c2nnc(-c3ccc4[nH]ccc4c3)o2)[C@H](C)O)ccc(C#N)c1Cl [Example 98, 4-((1R,2S)-1-(5-(1H-Indol-5-yl)-1,3,4-oxadiazol-2-yl)-2-hydroxypropylamino)-2-chloro-3-methylbenzonitrile] | 80 | 
CC(=O)Oc1ccc(-c2nnc([C@H](Nc3ccc(C#N)c(Cl)c3C)[C@H](C)OC(C)=O)o2)cc1 [Example 73, 4-(5-((1R,2S)-2-Acetoxy-1-(3-chloro-4-cyano-2-methylphenylamino)propyl)-1,3,4-oxadiazol-2-yl)phenyl acetate] | 30 | 
